Reference: the supplement of paper PMC6045584
± gives the standard deviation of the averaged measurements.

Key:
17-AAG = compound: C=CCNC1=C2C[C@@H](C)C[C@H](OC)[C@H](O)[C@@H](C)/C=C(\C)[C@H](OC(N)=O)[C@@H](OC)/C=C\C=C(/C)C(=O)NC(=CC1=O)C2=O [17-AAG]; experiment: surviving fraction relative to DMSO-only wells; higher = less growth inhibition; settings: exposure time: 5 days
In short: (§1)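 Inhibitors were tested at 0.5, 1, 5, 10, 50, 100, 500 and 1000 nM, applied continuously for five days beginning 24 hours after log-phase tumour cells were seeded at 250–500 per well in 384-well plates. CellTiter-Glo luminescence served as the viability measure, expressed as surviving fraction against the median of DMSO-only wells. Each line, screened three times, was kept only with replicate Pearson r >0.7 and median Z' >0.3.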

RESVERATROL = compound: Oc1ccc(/C=C/c2cc(O)cc(O)c2)cc1 [RESVERATROL]; experiment: as above; settings: exposure time: 5 days
In short: as §1

Test System	surviving fraction (17-AAG; 0.5 nM)	surviving fraction (17-AAG; 1 nM)	surviving fraction (17-AAG; 5 nM)	surviving fraction (17-AAG; 10 nM)	surviving fraction (17-AAG; 50 nM)	surviving fraction (17-AAG; 100 nM)	surviving fraction (17-AAG; 500 nM)	surviving fraction (17-AAG; 1000 nM)	surviving fraction (RESVERATROL; 0.5 nM)	surviving fraction (RESVERATROL; 1 nM)	surviving fraction (RESVERATROL; 5 nM)	surviving fraction (RESVERATROL; 10 nM)	surviving fraction (RESVERATROL; 50 nM)	surviving fraction (RESVERATROL; 100 nM)	surviving fraction (RESVERATROL; 500 nM)	surviving fraction (RESVERATROL; 1000 nM)
MDAMB436 BREAST	0.801 ± 0.045	0.797 ± 0.073	0.749 ± 0.077	0.581 ± 0.039	0.318 ± 0.027	0.344 ± 0.033	0.328 ± 0.042	0.352 ± 0.015	0.943 ± 0.049	1.01 ± 0.17	0.998 ± 0.2	1.01 ± 0.11	1.08 ± 0.21	0.993 ± 0.11	1.06 ± 0.15	1.07 ± 0.056
MDAMB453 BREAST	1.01 ± 0.017	1.04 ± 0.03	0.842 ± 0.057	0.356 ± 0.014	0.052 ± 0.027	0.048 ± 0.012	0.0367 ± 0.0049	0.042 ± 0.018	1.07 ± 0.059	1.06 ± 0.06	1.16 ± 0.022	1.11 ± 0.039	1.16 ± 0.05	1.12 ± 0.069	1.04 ± 0.058	1.09 ± 0.019
MDAMB468 BREAST	0.901 ± 0.05	0.826 ± 0.03	0.95 ± 0.039	0.931 ± 0.04	0.92 ± 0.082	0.31 ± 0.022	0.219 ± 0.029	0.218 ± 0.021	1.05 ± 0.11	1.13 ± 0.08	1.06 ± 0.059	1.07 ± 0.05	1.02 ± 0.047	1.14 ± 0.037	1.07 ± 0.053	1.09 ± 0.06
MFM223 BREAST	0.757 ± 0.067	0.749 ± 0.036	0.503 ± 0.049	0.33 ± 0.022	0.119 ± 0.0098	0.0942 ± 0.006	0.08 ± 0.0044	0.095 ± 0.006	1.06 ± 0.062	1.45 ± 0.56	1.15 ± 0.042	1.46 ± 0.46	1.08 ± 0.086	1.08 ± 0.18	1.19 ± 0.046	1.08 ± 0.11
MG63 BONE	0.886 ± 0.028	0.88 ± 0.012	0.976 ± 0.028	0.919 ± 0.017	0.957 ± 0.014	0.733 ± 0.021	0.258 ± 0.0081	0.173 ± 0.0036	1.01 ± 0.038	1.06 ± 0.048	1.07 ± 0.035	1.15 ± 0.021	1.04 ± 0.024	1.11 ± 0.029	1.03 ± 0.023	1.05 ± 0.031
MHM BONE	0.973 ± 0.016	0.966 ± 0.026	0.987 ± 0.043	1.019 ± 0.0027	1.04 ± 0.02	0.912 ± 0.048	0.262 ± 0.023	0.184 ± 0.0051	0.997 ± 0.013	1.02 ± 0.015	1.03 ± 0.012	1.03 ± 0.018	1.06 ± 0.032	1.06 ± 0.049	0.998 ± 0.025	1.045 ± 0.0076
NCIH441 LUNG	0.906 ± 0.13	1.02 ± 0.04	0.982 ± 0.046	0.993 ± 0.074	0.609 ± 0.069	0.416 ± 0.033	0.3 ± 0.025	0.308 ± 0.018	1.14 ± 0.074	1.08 ± 0.12	1.1 ± 0.099	1.18 ± 0.09	1.09 ± 0.029	1.15 ± 0.087	1.1 ± 0.025	1.17 ± 0.026
NOS1 BONE	0.804 ± 0.1	0.831 ± 0.081	0.759 ± 0.069	0.651 ± 0.063	0.379 ± 0.023	0.215 ± 0.027	0.0853 ± 0.0021	0.0827 ± 0.008	1.08 ± 0.18	0.975 ± 0.046	1.07 ± 0.028	1.137 ± 0.0086	1.21 ± 0.22	1.35 ± 0.13	1.16 ± 0.032	1.17 ± 0.053
NY BONE	0.9133 ± 0.0047	0.924 ± 0.024	0.975 ± 0.0089	0.771 ± 0.054	0.0967 ± 0.0049	0.11 ± 0.0063	0.068 ± 0.0046	0.0527 ± 0.0045	0.936 ± 0.024	0.976 ± 0.03	1.06 ± 0.022	1.06 ± 0.048	1.01 ± 0.035	1.05 ± 0.047	0.951 ± 0.0076	1.01 ± 0.054
OS25HAL BONE	0.9 ± 0.024	0.897 ± 0.041	0.909 ± 0.05	0.894 ± 0.05	0.948 ± 0.015	0.762 ± 0.13	0.146 ± 0.0098	0.141 ± 0.0098	1.01 ± 0.026	1.11 ± 0.059	1.03 ± 0.032	0.996 ± 0.024	1.001 ± 0.0068	1.08 ± 0.04	1.03 ± 0.018	1.16 ± 0.027
OSHN BONE	0.9227 ± 0.006	0.923 ± 0.011	0.943 ± 0.013	0.937 ± 0.018	0.921 ± 0.018	0.232 ± 0.071	0.123 ± 0.0085	0.108 ± 0.0066	1.02 ± 0.022	1.106 ± 0.0076	1.07 ± 0.017	1.099 ± 0.004	1.06 ± 0.026	1.13 ± 0.03	1.09 ± 0.02	1.11 ± 0.024
PCI30 HEADNECK	0.915 ± 0.067	0.972 ± 0.059	1.01 ± 0.12	1.09 ± 0.029	0.302 ± 0.031	0.134 ± 0.019	0.0433 ± 0.0093	0.0393 ± 0.0015	1 ± 0.031	1.02 ± 0.058	1.04 ± 0.03	1.1 ± 0.08	1.05 ± 0.031	1.13 ± 0.045	1.07 ± 0.082	1.16 ± 0.015
RDES SOFT TISSUE	0.776 ± 0.22	0.784 ± 0.055	0.674 ± 0.081	0.692 ± 0.18	0.745 ± 0.11	0.992 ± 0.26	0.335 ± 0.042	0.16 ± 0.0035	1.25 ± 0.14	1.25 ± 0.05	1.29 ± 0.042	1.32 ± 0.054	1.37 ± 0.13	1.35 ± 0.24	1.68 ± 0.053	1.67 ± 0.12
S68 BREAST	0.8 ± 0.19	0.706 ± 0.12	0.126 ± 0.0072	0.0657 ± 0.0075	0.0677 ± 0.0091	0.064 ± 0.0044	0.057 ± 0.0079	0.0607 ± 0.0047	0.829 ± 0.095	0.815 ± 0.21	0.993 ± 0.36	0.818 ± 0.095	1.14 ± 0.17	1 ± 0.059	1.1 ± 0.12	0.878 ± 0.066
SAOS2 BONE	0.829 ± 0.046	0.775 ± 0.01	0.859 ± 0.099	0.77 ± 0.073	0.215 ± 0.031	0.0823 ± 0.004	0.069 ± 0.0087	0.0783 ± 0.0058	1.16 ± 0.15	1.24 ± 0.047	1.24 ± 0.091	1.23 ± 0.061	1.26 ± 0.11	1.22 ± 0.089	1.24 ± 0.084	1.18 ± 0.072
SCC003 HEADNECK	0.839 ± 0.058	0.89 ± 0.024	0.882 ± 0.04	0.789 ± 0.14	1.01 ± 0.074	0.396 ± 0.012	0.195 ± 0.017	0.0693 ± 0.0095	1.05 ± 0.056	1.06 ± 0.15	1.14 ± 0.012	1.12 ± 0.058	1.06 ± 0.084	1.1 ± 0.064	1.09 ± 0.017	1.15 ± 0.075
SCC36 HEADNECK	0.696 ± 0.065	0.767 ± 0.036	0.772 ± 0.089	0.744 ± 0.093	0.518 ± 0.059	0.257 ± 0.012	0.039 ± 0.0027	0.038 ± 0.0044	1.13 ± 0.082	1.14 ± 0.11	1.22 ± 0.044	1.19 ± 0.045	1.25 ± 0.07	1.25 ± 0.03	1.05 ± 0.099	1.16 ± 0.16
SCC47 HEADNECK	0.908 ± 0.024	0.925 ± 0.028	0.973 ± 0.014	0.939 ± 0.028	0.964 ± 0.053	0.255 ± 0.032	0.095 ± 0.002	0.067 ± 0.0044	1.09 ± 0.13	1.11 ± 0.096	1.09 ± 0.066	1.21 ± 0.038	1.21 ± 0.072	1.17 ± 0.051	1.09 ± 0.023	1.2 ± 0.057
SCC90 HEADNECK	0.866 ± 0.0092	0.923 ± 0.12	1 ± 0.11	0.862 ± 0.079	0.793 ± 0.039	0.423 ± 0.064	0.206 ± 0.042	0.0677 ± 0.013	1.01 ± 0.012	1.045 ± 0.0079	1.12 ± 0.15	1.08 ± 0.021	1.03 ± 0.061	1.05 ± 0.064	1.05 ± 0.019	0.956 ± 0.076
